What was measured:
[1] = target: T1, Prostaglandin E2 receptor EP4 subtype (Homo sapiens, UniProt P35408); assay: Binding affinity to EP4 receptor in presence of 10% HSA
[2] = target: T1, Prostaglandin E2 receptor EP4 subtype; assay: Binding affinity to EP4 receptor
[3] = target: T1, Prostaglandin E2 receptor EP4 subtype; assay: Antagonist activity at human EP4 receptor in HEK293 cells by cell-based functional assay
[4] = target: T2, Prostaglandin E2 receptor EP1 subtype (Homo sapiens, UniProt P34995); assay: Binding affinity to EP1 receptor
T2 sequence (P34995 whole entry): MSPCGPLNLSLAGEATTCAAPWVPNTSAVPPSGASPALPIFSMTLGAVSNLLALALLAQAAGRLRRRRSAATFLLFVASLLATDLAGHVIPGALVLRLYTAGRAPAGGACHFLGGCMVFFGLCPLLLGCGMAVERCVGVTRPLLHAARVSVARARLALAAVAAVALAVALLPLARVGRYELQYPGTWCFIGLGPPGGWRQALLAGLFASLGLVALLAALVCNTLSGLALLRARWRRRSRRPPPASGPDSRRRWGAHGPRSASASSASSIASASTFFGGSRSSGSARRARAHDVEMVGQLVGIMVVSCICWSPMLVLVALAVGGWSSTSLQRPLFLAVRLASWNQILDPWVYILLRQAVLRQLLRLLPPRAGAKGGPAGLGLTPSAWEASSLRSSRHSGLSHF

[5] = target: T3, Thromboxane A2 receptor (Homo sapiens, UniProt P21731); assay: Binding affinity to TP receptor
T3 sequence (P21731 whole entry): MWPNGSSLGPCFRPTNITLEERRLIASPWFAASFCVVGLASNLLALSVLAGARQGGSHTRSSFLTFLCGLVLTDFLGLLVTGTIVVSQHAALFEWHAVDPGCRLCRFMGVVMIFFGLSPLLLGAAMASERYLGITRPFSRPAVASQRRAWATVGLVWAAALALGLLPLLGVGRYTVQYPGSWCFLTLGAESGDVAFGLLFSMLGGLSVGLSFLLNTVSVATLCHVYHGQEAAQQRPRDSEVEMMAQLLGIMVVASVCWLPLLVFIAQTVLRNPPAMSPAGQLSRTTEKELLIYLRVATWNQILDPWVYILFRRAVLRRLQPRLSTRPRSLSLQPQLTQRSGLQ

[6] = target: Prostaglandin E2 receptor EP2 subtype (Homo sapiens, UniProt P43116); assay: Binding affinity to EP2 receptor
Chain of Prostaglandin E2 receptor EP2 subtype (P43116 whole entry): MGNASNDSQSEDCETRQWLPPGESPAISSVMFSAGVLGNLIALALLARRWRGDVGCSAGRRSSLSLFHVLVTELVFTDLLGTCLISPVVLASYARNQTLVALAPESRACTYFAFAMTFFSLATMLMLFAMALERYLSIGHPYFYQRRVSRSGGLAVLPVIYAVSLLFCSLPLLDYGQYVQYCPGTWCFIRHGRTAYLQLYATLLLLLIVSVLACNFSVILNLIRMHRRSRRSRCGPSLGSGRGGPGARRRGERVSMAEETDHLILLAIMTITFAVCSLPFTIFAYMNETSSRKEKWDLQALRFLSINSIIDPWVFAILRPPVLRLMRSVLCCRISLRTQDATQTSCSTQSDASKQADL

[7] = Binding affinity to DP receptor
[8] = target: Prostacyclin receptor (Homo sapiens, UniProt P43119); assay: Binding affinity to IP receptor
Chain of Prostacyclin receptor (P43119 whole entry): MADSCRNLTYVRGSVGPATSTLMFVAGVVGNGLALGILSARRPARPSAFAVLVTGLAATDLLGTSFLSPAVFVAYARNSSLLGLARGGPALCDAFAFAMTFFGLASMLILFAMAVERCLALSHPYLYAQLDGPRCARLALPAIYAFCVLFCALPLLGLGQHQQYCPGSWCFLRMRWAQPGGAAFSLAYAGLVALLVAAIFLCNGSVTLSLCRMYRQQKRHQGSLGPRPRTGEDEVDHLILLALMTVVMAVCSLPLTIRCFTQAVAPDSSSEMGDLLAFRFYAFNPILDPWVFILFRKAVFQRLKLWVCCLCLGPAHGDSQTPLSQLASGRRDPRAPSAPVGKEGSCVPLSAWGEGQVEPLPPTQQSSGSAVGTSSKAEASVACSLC

[9] = target: T4, Prostaglandin E2 receptor EP3 subtype (Homo sapiens, UniProt P43115); assay: Binding affinity to EP3 receptor
T4 sequence (P43115 whole entry): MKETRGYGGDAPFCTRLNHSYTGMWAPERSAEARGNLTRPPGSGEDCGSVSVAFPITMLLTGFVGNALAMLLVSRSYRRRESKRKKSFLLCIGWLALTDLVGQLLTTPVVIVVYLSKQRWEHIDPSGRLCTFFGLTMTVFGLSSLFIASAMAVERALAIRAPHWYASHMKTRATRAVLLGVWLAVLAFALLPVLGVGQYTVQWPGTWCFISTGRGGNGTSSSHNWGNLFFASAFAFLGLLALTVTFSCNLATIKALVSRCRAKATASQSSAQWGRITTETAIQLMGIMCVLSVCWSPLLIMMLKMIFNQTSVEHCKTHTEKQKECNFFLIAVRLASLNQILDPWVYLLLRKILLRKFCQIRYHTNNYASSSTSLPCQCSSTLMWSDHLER

[10] = target: T5, Prostaglandin D2 receptor 2 (Homo sapiens, UniProt Q9Y5Y4); assay: Binding affinity to CRTH2 receptor
T5 sequence (Q9Y5Y4 whole entry): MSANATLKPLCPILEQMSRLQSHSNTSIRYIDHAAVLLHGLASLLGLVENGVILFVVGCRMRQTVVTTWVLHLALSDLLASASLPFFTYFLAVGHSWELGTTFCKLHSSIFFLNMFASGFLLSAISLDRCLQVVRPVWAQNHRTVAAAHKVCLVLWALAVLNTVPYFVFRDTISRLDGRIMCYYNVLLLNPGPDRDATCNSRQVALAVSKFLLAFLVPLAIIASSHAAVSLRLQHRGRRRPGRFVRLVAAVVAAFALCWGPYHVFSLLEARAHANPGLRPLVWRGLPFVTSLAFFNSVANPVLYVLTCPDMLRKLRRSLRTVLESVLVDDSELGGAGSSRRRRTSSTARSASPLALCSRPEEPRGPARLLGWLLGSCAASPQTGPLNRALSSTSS

[11] = target: Prostaglandin F2-alpha receptor (Homo sapiens, UniProt P43088); assay: Binding affinity to FP receptor
Chain of Prostaglandin F2-alpha receptor (P43088 whole entry): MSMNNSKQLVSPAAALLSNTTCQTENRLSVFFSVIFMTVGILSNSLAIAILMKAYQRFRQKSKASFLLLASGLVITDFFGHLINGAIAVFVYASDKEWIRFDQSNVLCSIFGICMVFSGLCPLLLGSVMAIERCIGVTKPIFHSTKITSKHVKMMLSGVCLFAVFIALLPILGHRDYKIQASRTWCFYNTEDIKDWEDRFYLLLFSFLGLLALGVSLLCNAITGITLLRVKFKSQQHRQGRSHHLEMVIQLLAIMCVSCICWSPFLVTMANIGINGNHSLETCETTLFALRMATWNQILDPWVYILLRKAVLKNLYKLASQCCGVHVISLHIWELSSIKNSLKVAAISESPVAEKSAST

T1 sequence (P35408 whole entry): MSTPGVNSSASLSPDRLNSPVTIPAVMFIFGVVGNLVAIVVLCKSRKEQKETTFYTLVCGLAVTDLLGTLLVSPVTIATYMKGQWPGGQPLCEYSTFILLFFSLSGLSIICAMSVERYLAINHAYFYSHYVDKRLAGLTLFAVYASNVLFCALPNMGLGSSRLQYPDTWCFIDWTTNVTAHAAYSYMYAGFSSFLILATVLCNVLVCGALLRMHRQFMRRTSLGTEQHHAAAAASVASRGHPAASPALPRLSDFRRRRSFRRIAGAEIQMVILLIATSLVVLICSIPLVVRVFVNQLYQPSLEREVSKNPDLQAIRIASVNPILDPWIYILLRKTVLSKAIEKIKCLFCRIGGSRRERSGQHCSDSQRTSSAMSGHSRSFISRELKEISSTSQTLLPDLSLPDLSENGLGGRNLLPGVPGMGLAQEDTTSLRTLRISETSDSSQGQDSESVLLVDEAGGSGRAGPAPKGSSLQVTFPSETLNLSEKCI

Row | Compound | Ki [1] [nM] | Ki [2] [nM] | also measured
1 | CNC(=O)c1sc2c(C)cc(C)cc2c1-c1ccc(CCNC(=O)NS(=O)(=O)c2ccc(C)cc2)cc1 | 134 | 0.5 | –
2 | Cc1ccc(S(=O)(=O)NC(=O)NCCc2ccc(-c3c(C(=O)N(C)C)sc4c(Cl)cc(Cl)cc34)cc2)cc1 | 17 | 0.59 | –
3 | COC(=O)c1sc2c(C)cc(C)cc2c1-c1ccc(CCNC(=O)NS(=O)(=O)c2ccc(C)cc2)cc1 | 39 | 0.97 | –
4 | Cc1ccc(S(=O)(=O)NC(=O)NCCc2ccc(-c3c(C(=O)N(C)C)sc4c(F)cc(F)cc34)cc2)cc1 | 40 | 0.53 | –
5 | Cc1ccc(S(=O)(=O)NC(=O)NCCc2ccc(-c3c(C(=O)N(C)C)sc4c(Cl)cc(C(F)(F)F)cc34)cc2)cc1 | 8.7 | 0.55 | –
6 | Cc1cc(C)c2sc(C(=O)N(C)C)c(-c3ccc(CCNC(=O)Cc4c(Cl)cccc4Cl)cc3)c2c1 | 17 | 1.6 | –
7 | COc1ccccc1CC(=O)NCCc1ccc(-c2c(C(=O)N(C)C)sc3c(C)cc(C)cc23)cc1 | 3.4 | 0.2 | IC50 [3]: 2.4 nM
8 | Cc1ccc(S(=O)(=O)NC(=O)NCCc2ccc(-c3c(C(=O)N(C)C)sc4c(C)ccc(C)c34)cc2)cc1 | 19 | 0.77 | –
9 | Cc1ccc(S(=O)(=O)NC(=O)NCCc2ccc(-c3c(C(N)=O)sc4c(C)cc(C)cc34)cc2)cc1 | 650 | 3.8 | –
10 | Cc1cc(C)c2sc(C(=O)N(C)C)c(-c3ccc(-c4nn[nH]n4)cc3)c2c1 | 2300 | 160 | –
11 | Cc1cc(C)c2sc(C(=O)N(C)C)c(-c3ccc(CCNc4ncccn4)cc3)c2c1 | 42 | 0.98 | –
12 | Cc1cc(C)c2sc(C(=O)N(C)C)c(-c3ccc(CCNC(=O)NS(=O)(=O)c4ccccc4Cl)cc3)c2c1 | 2.7 | 0.42 | –
13 | Cc1ccc(S(=O)(=O)NC(=O)NCCc2ccc(-c3c(C(=O)N(C)C)sc4c(C)cc(C)cc34)cc2)cc1 | 1.4 | 0.54 | Ki [4]: > 9500 nM; Ki [5]: 61 nM; Ki [6]: 3330 nM; Ki [7]: 73 nM; Ki [8]: > 7700 nM; IC50 [3]: 1.2 nM; Ki [9]: 530 nM; Ki [10]: > 7230 nM; Ki [11]: > 8700 nM
14 | Cc1ccc(S(=O)(=O)NC(=O)NCCc2ccc(-c3c(C(=O)N4CCCC4)sc4c(C)cc(C)cc34)cc2)cc1 | 11 | 0.41 | –
15 | Cc1cc(C)c2sc(C(=O)N(C)C)c(-c3ccc(CCNC(=O)OC(C)(C)C)cc3)c2c1 | 1990 | 68 | –
16 | Cc1cc(C)c2sc(C(=O)N(C)C)c(-c3ccc(CCNC(=O)Cc4ccccn4)cc3)c2c1 | 40 | 2.3 | –
17 | COc1ccccc1C1(C(=O)NCCc2ccc(-c3c(C(=O)N(C)C)sc4c(C)cc(C)cc34)cc2)CC1 | 17 | 3 | –
18 | Cc1cc(C)c2sc(C(=O)N(C)C)c(-c3ccc(CCNC(=O)NS(=O)(=O)c4ccc(Cl)cc4)cc3)c2c1 | 2.2 | 0.4 | –
